{"source": "ChEMBL document CHEMBL5325505", "about": "“Discovery of chiral 1,4-diarylazetidin-2-one-based hydroxamic acid derivatives as novel tubulin polymerization inhibitors with histone deacetylase inhibitory activity” (Bioorg Med Chem, 2023)", "key": {"BE(2)-C [1]": {"tested_on": "BE(2)-C", "assay": "Antiproliferative activity against human BE2C cells incubated for 48 hrs by MTT assay", "assay_type": "functional, cell-based"}, "HCT-116": {"tested_on": "HCT-116", "assay": "Antiproliferative activity against human HCT-116 cells incubated for 48 hrs by MTT assay", "assay_type": "functional, cell-based", "settings": "HCT-116, 48 h"}, "Histone deacetylase 1": {"molecular_target": "Histone deacetylase 1 (Homo sapiens, UniProt Q13547)", "sequence (Q13547 whole entry)": "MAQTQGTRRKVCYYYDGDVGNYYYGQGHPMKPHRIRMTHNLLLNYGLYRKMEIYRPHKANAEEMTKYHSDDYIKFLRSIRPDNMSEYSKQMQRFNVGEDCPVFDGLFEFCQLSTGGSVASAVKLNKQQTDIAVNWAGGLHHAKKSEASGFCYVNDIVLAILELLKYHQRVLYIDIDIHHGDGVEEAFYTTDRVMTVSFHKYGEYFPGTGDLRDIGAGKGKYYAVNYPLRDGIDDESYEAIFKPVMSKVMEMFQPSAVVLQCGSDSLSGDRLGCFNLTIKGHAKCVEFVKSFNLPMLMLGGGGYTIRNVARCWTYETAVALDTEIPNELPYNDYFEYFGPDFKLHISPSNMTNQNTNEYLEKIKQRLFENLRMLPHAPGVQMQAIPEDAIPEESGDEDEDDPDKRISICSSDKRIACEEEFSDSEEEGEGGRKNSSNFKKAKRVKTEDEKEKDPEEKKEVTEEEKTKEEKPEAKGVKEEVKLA", "assay": "Inhibition of HDAC1 (unknown origin)"}, "BE(2)-C [2]": {"tested_on": "BE(2)-C", "assay": "Upregulation of acetylated H3 expression in human BE2C cells by Western blot analysis", "assay_type": "functional, cell-based", "settings": "dose 25-100 nM"}, "BE(2)-C [3]": {"tested_on": "BE(2)-C", "assay": "Upregulation of acetylated SMC3 expression in human BE2C cells by Western blot analysis", "assay_type": "functional, cell-based", "settings": "dose 25-100 nM"}, "BE(2)-C [4]": {"tested_on": "BE(2)-C", "assay": "Upregulation of acetylated tubulin expression in human BE2C cells by Western blot analysis", "assay_type": "functional, cell-based", "settings": "dose 25-100 nM"}, "Tubulin (Sus scrofa)": {"molecular_target": "Tubulin (Sus scrofa) (UniProt P02554+P02550)", "sequence (P02550 whole entry, looked up)": "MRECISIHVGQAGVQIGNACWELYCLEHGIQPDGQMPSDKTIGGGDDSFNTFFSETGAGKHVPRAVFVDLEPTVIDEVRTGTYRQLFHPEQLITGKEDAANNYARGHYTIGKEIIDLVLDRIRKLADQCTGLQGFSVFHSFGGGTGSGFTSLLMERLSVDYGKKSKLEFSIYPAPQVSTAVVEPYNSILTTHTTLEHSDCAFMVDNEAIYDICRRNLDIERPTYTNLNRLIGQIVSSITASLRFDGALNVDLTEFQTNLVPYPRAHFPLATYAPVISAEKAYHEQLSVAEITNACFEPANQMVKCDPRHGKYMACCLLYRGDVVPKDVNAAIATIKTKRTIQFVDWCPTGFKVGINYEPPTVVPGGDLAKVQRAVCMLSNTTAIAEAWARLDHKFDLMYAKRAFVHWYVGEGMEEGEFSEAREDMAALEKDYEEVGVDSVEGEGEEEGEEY", "sequence (P02554 whole entry, looked up)": "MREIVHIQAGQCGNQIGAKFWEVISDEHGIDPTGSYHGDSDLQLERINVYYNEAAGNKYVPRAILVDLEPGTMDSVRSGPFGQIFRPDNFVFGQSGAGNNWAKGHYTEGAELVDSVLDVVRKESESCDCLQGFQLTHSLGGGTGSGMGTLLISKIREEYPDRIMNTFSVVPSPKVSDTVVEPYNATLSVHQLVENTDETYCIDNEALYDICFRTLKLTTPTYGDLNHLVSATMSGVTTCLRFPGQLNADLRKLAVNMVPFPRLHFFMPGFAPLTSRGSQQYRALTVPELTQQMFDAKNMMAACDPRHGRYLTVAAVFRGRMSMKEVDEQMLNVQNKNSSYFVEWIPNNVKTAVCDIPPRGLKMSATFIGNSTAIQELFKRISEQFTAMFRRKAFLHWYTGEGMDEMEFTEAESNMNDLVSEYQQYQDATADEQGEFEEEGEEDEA", "assay": "(§1) Inhibition of tubulin polymerization of pig brain by absorbance based assay", "settings": "dose 0.4-12 µM"}, "Tubulin": {"molecular_target": "Tubulin (Sus scrofa, UniProt P02554+P02550)", "assay": "as §1"}, "Tubulin (Homo sapiens)": {"molecular_target": "Tubulin (Homo sapiens) (UniProt P68371+Q9H4B7+P0DPH7+P68366+Q13509+Q71U36+P04350+Q3ZCM7+P07437+P68363+Q9BQE3+Q6PEY2+Q13885+Q9BVA1+Q9BUF5)", "assay": "Inhibition of tubulin polymerization in human BE2C cells assessed as decrease in tubulin density at 25 to 100 nM incubated for 24 hrs by immunofluorescence based microscopy", "assay_type": "cell-based", "settings": "dose 25-100 nM"}, "BE(2)-C [5]": {"tested_on": "BE(2)-C", "assay": "Upregulation of cleaved PARP-1 expression in human BE2C cells at 25 to 100 nM by Western blot analysis", "assay_type": "functional, cell-based", "settings": "dose 25-100 nM"}, "BE(2)-C [6]": {"tested_on": "BE(2)-C", "assay": "Upregulation of Bax expression in human BE2C cells at 25 to 100 nM by Western blot analysis", "assay_type": "functional, cell-based", "settings": "dose 25-100 nM"}, "BE(2)-C [7]": {"tested_on": "BE(2)-C", "assay": "Induction of cell cycle arrest in human BE2C cells assessed as accumulation at G2/M phase incubated for 24 hrs by RNase/PI staining based flow cytometry", "assay_type": "functional", "settings": "[…]"}, "BE(2)-C [8]": {"tested_on": "BE(2)-C", "assay": "Induction of cell cycle arrest in human BE2C cells assessed as accumulation at G2/M phase at 100 nM incubated for 24 hrs by RNase/PI staining based flow cytometry (reference value: 31 %)", "assay_type": "functional"}, "BE(2)-C [9]": {"tested_on": "BE(2)-C", "assay": "Induction of cell cycle arrest in human BE2C cells assessed as increase in cyclin B1 expression by Western blot analysis", "assay_type": "functional, cell-based", "settings": "dose 12.5-50 nM"}, "BE(2)-C [10]": {"tested_on": "BE(2)-C", "assay": "Induction of apoptosis in human BE2C cells assessed as viable cells at 25 nM incubated for 48 hrs by annexin V-FITC/PI staining based flow cytometry (reference value: 82.16 %)", "assay_type": "functional", "settings": "read-out: Activity"}, "BE(2)-C [11]": {"tested_on": "BE(2)-C", "assay": "Induction of apoptosis in human BE2C cells assessed as early apoptotic cells at 25 nM incubated for 48 hrs by annexin V-FITC/PI staining based flow cytometry (reference value: 4.28 %)", "assay_type": "functional"}, "BE(2)-C [12]": {"tested_on": "BE(2)-C", "assay": "Induction of apoptosis in human BE2C cells assessed as viable cells at 50 nM incubated for 48 hrs by annexin V-FITC/PI staining based flow cytometry (reference value: 82.16 %)", "assay_type": "functional", "settings": "read-out: Activity"}, "BE(2)-C [13]": {"tested_on": "BE(2)-C", "assay": "Induction of apoptosis in human BE2C cells assessed as late apoptotic cells at 50 nM incubated for 48 hrs by annexin V-FITC/PI staining based flow cytometry (reference value: 9.99 %)", "assay_type": "functional"}, "BE(2)-C [14]": {"tested_on": "BE(2)-C", "assay": "Induction of apoptosis in human BE2C cells assessed as necrotic cells at 50 nM incubated for 48 hrs by annexin V-FITC/PI staining based flow cytometry (reference value: 3.57 %)", "assay_type": "functional"}, "BE(2)-C [15]": {"tested_on": "BE(2)-C", "assay": "Induction of apoptosis in human BE2C cells assessed as early apoptotic cells at 100 nM incubated for 48 hrs by annexin V-FITC/PI staining based flow cytometry (reference value: 4.28 %)", "assay_type": "functional"}, "BE(2)-C [16]": {"tested_on": "BE(2)-C", "assay": "Induction of apoptosis in human BE2C cells assessed as necrotic cells at 100 nM incubated for 48 hrs by annexin V-FITC/PI staining based flow cytometry (reference value: 3.57 %)", "assay_type": "functional"}, "[17]": {"assay": "Metabolic stability in human liver microsomes assessed as compound remaining incubated for 5 mins", "assay_type": "ADME, Microsome", "settings": "read-out: Stability"}, "[18]": {"assay": "Metabolic stability in human liver microsomes assessed as compound remaining incubated for 10 mins", "assay_type": "ADME, Microsome", "settings": "read-out: Stability"}, "[19]": {"assay": "Metabolic stability in human liver microsomes assessed as compound remaining incubated for 30 mins", "assay_type": "ADME, Microsome", "settings": "liver microsomes, read-out: Stability"}, "[20]": {"assay": "Metabolic stability in human liver microsomes assessed as compound remaining incubated for 60 mins", "assay_type": "ADME, Microsome", "settings": "liver microsomes, read-out: Stability"}, "[21]": {"assay": "Metabolic stability in human liver microsomes assessed as intrinsic clearance", "assay_type": "ADME, Microsome", "settings": "read-out: CLH"}, "[22]": {"assay": "Metabolic stability in human liver microsomes assessed as half life", "assay_type": "ADME, Microsome"}, "[23]": {"assay": "Toxicity in nude mouse xenografted with human BE2C cells assessed as body weight loss at 25 mg/kg, ip treated for every 3 days", "assay_type": "organism-based", "settings": "in vivo, 72 h, time 3 day"}, "[24]": {"assay": "Toxicity in nude mouse xenografted with human BE2C cells assessed as adverse effect at 25 mg/kg, ip treated for every 3 days", "assay_type": "organism-based", "settings": "in vivo, 72 h, time 3 day"}}, "note": "Calls of active or inactive are those of the source. The rule behind the calls is not given here."}
{"smiles": "COc1ccc([C@H]2[C@H](COC(=O)c3ccc(C(=O)NO)cc3)C(=O)N2c2cc(OC)c(OC)c(OC)c2)cc1O", "values": [{"measurement": "IC50", "setting": "BE(2)-C [1]", "result": 17, "unit": "nM"}, {"measurement": "IC50", "setting": "HCT-116", "result": 51, "unit": "nM"}, {"measurement": "IC50", "setting": "Histone deacetylase 1", "result": 155, "unit": "nM"}, {"measurement": "Activity", "setting": "BE(2)-C [2]", "result": "Dose-Dependent Effect"}, {"measurement": "Activity", "setting": "BE(2)-C [3]", "result": "Dose-Dependent Effect"}, {"measurement": "Activity", "setting": "BE(2)-C [4]", "result": "Dose-Dependent Effect"}, {"measurement": "inhibition", "setting": "Tubulin (Sus scrofa)", "result": "Dose-Dependent Effect"}, {"measurement": "IC50", "setting": "Tubulin", "result": 5.4, "unit": "µM"}, {"measurement": "inhibition", "setting": "Tubulin (Homo sapiens)", "result": "Active"}, {"measurement": "Activity", "setting": "BE(2)-C [5]", "result": "Active"}, {"measurement": "Activity", "setting": "BE(2)-C [6]", "result": "Active"}, {"measurement": "Activity", "setting": "BE(2)-C [7]", "result": "Dose-Dependent Effect"}, {"measurement": "Activity", "setting": "BE(2)-C [8]", "result": "~77", "unit": "%"}, {"measurement": "Activity", "setting": "BE(2)-C [9]", "result": "Dose-Dependent Effect"}, {"measurement": "viability at 0.025 µM", "setting": "BE(2)-C [10]", "result": 62.1, "unit": "%"}, {"measurement": "Activity", "setting": "BE(2)-C [11]", "result": 11.81, "unit": "%"}, {"measurement": "viability at 0.05 µM", "setting": "BE(2)-C [12]", "result": 50.2, "unit": "%"}, {"measurement": "Activity", "setting": "BE(2)-C [13]", "result": 29.09, "unit": "%"}, {"measurement": "Activity", "setting": "BE(2)-C [14]", "result": 8.53, "unit": "%"}, {"measurement": "Activity", "setting": "BE(2)-C [15]", "result": 17.27, "unit": "%"}, {"measurement": "Activity", "setting": "BE(2)-C [16]", "result": 9.54, "unit": "%"}, {"measurement": "remaining at 5 min", "setting": "[17]", "result": 89.4, "unit": "%"}, {"measurement": "remaining at 10 min", "setting": "[18]", "result": 80, "unit": "%"}, {"measurement": "remaining at 0.5 h", "setting": "[19]", "result": 58.2, "unit": "%"}, {"measurement": "remaining at 1 h", "setting": "[20]", "result": 55.3, "unit": "%"}, {"measurement": "CLint scaled", "setting": "[21]", "result": 18.1, "unit": "mL/min/kg"}, {"measurement": "t1/2", "setting": "[22]", "result": 68.8, "unit": "min"}, {"measurement": "Activity", "setting": "[23]", "result": "Non-Toxic"}, {"measurement": "Activity", "setting": "[24]", "result": "Non-Toxic"}]}
